Assay results published in US20110166149A1, “PTERIDINE DERIVATIVES FOR TREATING RESPIRATORY DISEASE” (TARGEGEN INC., priority 2008, published 2011).
Several values for one entry are separate records, joined by “and”; a condition that tells them apart may be missing. Equal entries are not always repeated. Where two headings read alike, the source gives them in different places.

Legend:
[1] = tested on: ovalbumin (OVA) challenged mice; test: Mouse airway resistance, methacholine challenge (Example 4); type: in vivo; details: aerosolized formulations, FIG. 4
Method: A series of compositions for pulmonary delivery were prepared by first preparing a 20% suspension of compound A in a 5% tyloxapol solution in water. Particle size reduction was achieved using a colloid mill (magicLAB®, MK module, for 6 hours @ 12,000 rpm, while maintaining a temperature below 50° C.). Samples at 4% compound A were prepared by dilution with DI water. A 0.4% compound A suspension in 0.1% tyloxapol solution was made by dilution with SWFI (6.02 g of the 20% suspension was QS to 30.23 g with SWFI) and the following suspensions were also prepared: • […] in 0.01% tyloxapol solution: 2.52 g of a 0.4% compound A suspension was diluted to 100 g with SWFI water. • 0.01% compound A suspension in 0.01% tyloxapol solution: 10 g of a 0.1% compound A suspension was diluted to 100 g with SWFI water. • 0.001% compound A suspension in 0.01% tyloxapol solution 3: 10 g of a 0.1% compound A suspension was diluted to 100 g with SWFI water. […] Airway resistance in the model is induced via a methacholine challenge. Airway resistance is both a diagnostic and a hallmark of respiratory diseases such as asthma and COPD and the reduction of airway resistance is considered a beneficial outcome.

[2] = Lung exposure in mice, nose-only chamber nebulization (Example 3); type: in vivo, Balb/c mice; details: 30 min nebulization, immediately after
Method: A series of compositions for pulmonary delivery were prepared by making a 20% suspension of compound A in a 5% tyloxapol solution in water. Particle size reduction was achieved using a colloid mill (magicLAB®, MK module, for 6 hours @ 12,000 rpm, while maintaining a temperature below 50° C.). Samples at 4% compound A were prepared by dilution with DI water. A 0.4% compound A suspension in 0.1% tyloxapol solution, was made by dilution with SWFI (6.02 g of the 20% suspension was QS to 30.23 g with SWFI).
0.4% compound A suspension in 0.1% tyloxapol solution: 2.07 g of a 4% compound A suspension was diluted to 20 g with DI water.
0.04% compound A suspension in 0.01% tyloxapol solution: 2.03 g of a 0.4% compound A suspension was diluted to 20 g with DI water. 0.004% compound A suspension in 0.001% tyloxapol solution: 2.05 g of a 0.04% compound A suspension was diluted to 20 g with DI water.
Compositions were delivered via a nose-only chamber (CH Technologies) to Balb/c mice by nebulizing for 30 minutes the composition with a PARI LC plus at 3 LPM with a 5 LPM dilutor (of dry air), tissues, plasma and BALF (3 mL used of PBS) collected after sacrificing immediately after nebulization, and were analyzed by HPLC-MS.

[3] = Aerodynamic particle size of nebulized suspensions, 7 stage impactor (Example 1); type: physicochemical; details: nebulized suspension
Method: 6,7-bis(3-hydroxyphenyl)-pteridine-2,4-diamine (Compound A) was formulated as a 20% suspension in a 5% tyloxapol solution in water. Particle size reduction was achieved using a colloid mill (magicLAB®, MK module, for 6 hours @ 12,000 rpm, while maintaining a temperature below 50° C.). Samples at 4, 0.4, 0.04 and 0.004% of compound A were prepared by dilution with DI water.
Nebulizations of the suspensions were carried out using a Pari LC Plus @ 3 LPM, using an active diluter at 5 LPM in a CH technologies nose-only exposure chamber. Aerodynamic particle size was determined by a 7 stage impactor from Intox at 1 LPM. Each stage extracted with acetonitrile:water 1:1 with 0.05% TFA and analyzed by HPLC against an external standard.

Solubility of Compound A = type: physicochemical
[4] = Particle size of nebulized solution, 7 stage cascade impactor (Example 5); type: physicochemical; details: nebulized solution ~3.3 mg/mL, pH ~3, tyloxapol/PVP 90F
Method: 36 mg of compound A was dissolved with the aid of 0.5 N HCl (QS to 1 g) under mixing and heat. 200 μL of this solution was mixed using a sonicator bath, if necessary with a separately prepared solution containing 1.8 mg of a 0.02% tyloxapol/2% PVP 90F and 34 μL of a 2 N NaOH, to give a final concentration of ˜3.3 mg/mL of compound A at a pH of ˜3.

[5] = Estimated lung exposure level calculated from respirable dose (Example 1); details: 30 minute exposure assumed, mouse
Method: Estimated lung exposure levels were calculated based on the following assumptions: respirable dose collected from 7 stage impactor; 30 minute exposure time; mouse minute volume of 23 mL/min; mouse weight of 25 g; mouse lung weight of 250 mg (1% of body weight).

[6] = formulation conc. 0.004%, individual animals 3A-3E
[7] = formulation conc. 0.04%, individual animals 2A-2E
[8] = formulation conc. 0.40%, individual animals 1A-1E

SMILES: Nc1nc(N)c2nc(-c3cccc(O)c3)c(-c3cccc(O)c3)nc2n1 [Compound A, 6,7-bis(3-hydroxyphenyl)-pteridine-2,4-diamine]
- airway resistance [1]: reduced airway resistance
- Compound A concentration BALF ([2]; formulation conc. 0.004%, Mean): 22.9 ± 34.0 ng/mL
- Compound A concentration Lung ([2]; formulation conc. 0.004%, Mean): 0.12 ± 0.02 µg/g
- Compound A concentration Plasma ([2]; formulation conc. 0.004%, Mean): <LLOQ
- Compound A concentration BALF [2, 6]: 83.6 ng/mL and 10.0 ng/mL and 7.84 ng/mL and 7.82 ng/mL and 4.99 ng/mL
- Compound A concentration Lung [2, 6]: 0.14 μg/g and 0.12 μg/g and 0.10 μg/g (2×) and 0.13 μg/g
- Compound A concentration Plasma [2, 6]: <LLOQ
- Compound A concentration BALF ([2]; formulation conc. 0.04%, Mean): 71.6 ± 38.4 ng/mL
- Compound A concentration Lung ([2]; formulation conc. 0.04%, Mean): 1.48 ± 0.49 µg/g
- Compound A concentration BALF [2, 7]: 62.6 ng/mL and 93 ng/mL and 92.1 ng/mL and 102 ng/mL and 8.19 ng/mL
- Compound A concentration Lung [2, 7]: 2.3 µg/g and 1.0 µg/g and 1.5 µg/g and 1.4 µg/g and 1.3 µg/g
- Compound A concentration Plasma [2, 7]: <LLOQ (4×) and 6.37 ng/mL
- Compound A concentration BALF ([2]; formulation conc. 0.40%, Mean): 1870 ± 1902 ng/mL
- Compound A concentration Lung ([2]; formulation conc. 0.40%, Mean): 6.7 ± 1.1 µg/g
- Compound A concentration Plasma ([2]; formulation conc. 0.40%, Mean): 5.16 ± 2.39 ng/mL
- Compound A concentration BALF [2, 8]: 1370 ng/mL and 5240 ng/mL and 1200 ng/mL and 804 ng/mL and 737 ng/mL
- Compound A concentration Lung [2, 8]: 8.2 μg/g and 32.1(?) μg/g and 6.1 μg/g and 6.5 μg/g and 5.9 μg/g
- Compound A concentration Plasma [2, 8]: 2.51 ng/mL and 3.98 ng/mL and 8.46 ng/mL and 6.73 ng/mL and 4.1 ng/mL
- MMAD (GSD) ([3]; 0.004% Compound A): 0.64 (2.35)
- MMAD (GSD) ([3]; 0.04% Compound A): 0.69 (1.74)
- MMAD (GSD) ([3]; 0.4% Compound A): 0.83 (1.87)
- MMAD (GSD) ([3]; 4% Compound A, MMAD = mass median aerodynamic diameter, GSD = geometric standard deviation): 1.35 (1.98)
- dissolution in organic solvents (Solubility of Compound A; DMSO and selected aprotic solvents with high dielectric constants): readily dissolves
- solubility (Solubility of Compound A; between pH of 3 and 9): negligible solubility
- solubility (Solubility of Compound A; water, aqueous buffer, pH below 2 and above 10, read-out: water solubility): > 20 mg/mL
- GSD [4]: 2.1
- MMAD [4]: ~1 μm
- Estimated lung conc. ([5]; 0.004% Compound A suspension): 0.1 µg/g
- Estimated lung conc. ([5]; 0.04% Compound A suspension): 1.4 µg/g
- Estimated lung conc. ([5]; 0.4% Compound A suspension): 11 µg/g
- Estimated lung conc. ([5]; 4% Compound A suspension): 75 µg/g
